In PMC12519234 (2025):

Columns and labels:
[1] = system: Tte preQ1 U22Ap (RNA, riboswitch, 2-aminopurine at 22 (replaces U)) CUGGGUCGCAGUAACCCCAGUUAACAAAACAAG; test: stopped-flow 2-aminopurine fluorescence; koff = kon × KD; details: 100 mM KCl, 2 mM MgCl2; 50 mM MOPS pH 7.5, 25 °C; calculated, one approximate value for preQ1 and 4a
[2] = system: Tte preQ1 U22Ap (RNA, riboswitch, 2-aminopurine at 22 (replaces U)) CUGGGUCGCAGUAACCCCAGUUAACAAAACAAG; test: 2-aminopurine fluorescence titration; details: 100 mM KCl, 2 mM MgCl2; 50 mM MOPS pH 7.5, 25 °C, 0.5 µM RNA
[3] = system: queT (41 nt) (RNA, riboswitch) ACGUGGUUCAUUCAUACCAUCCCACGUAAAAAAACUAGGAG; test: 1H NMR imino spectra; details: 25 mM NaCl, 2 mM MgCl2; 15 mM sodium cacodylate pH 6.5, 25 °C, 0.15 mM RNA
[4] = system: preQ1-like (40 nt, lmo2684 upstream region) (RNA, mRNA element) UACAGCUAGCUAGCUGAAAAUUAUAAAAAACUAAAGAGGU; test: 1H NMR imino spectra; details: 25 mM NaCl, 2 mM MgCl2; 15 mM sodium cacodylate pH 6.5, 25 °C, 0.15 mM RNA; no high affinity association
[5] = system: Tte preQ1 U22Ap (RNA, riboswitch, 2-aminopurine at 22 (replaces U)) CUGGGUCGCAGUAACCCCAGUUAACAAAACAAG; test: stopped-flow 2-aminopurine fluorescence; details: 100 mM KCl, 2 mM MgCl2; 50 mM MOPS pH 7.5, 25 °C

koff [1]: ~ 7.5 × 10^−4 s^−1 | KD(preQ1) [2]: 64 nM | binding [3]: yes | binding [4]: no | kon(preQ1) [5]: 13000 M⁻¹ s⁻¹
SMILES: NCc1c[nH]c2nc(N)[nH]c(=O)c12
